The results in this text go back to patent US20100010024A1, “USE OF1,4-DIARYL-DIHYDROPYRIMIDINE-2-ON DERIVATIVES FOR TREATING PULMONARY ARTERIAL HYPERTENSION” (Bayer Healthcare AG, priority 2006, published 2010).

Each structure is given as a SMILES string.

The experiment concerns the target T1, human neutrophil elastase (HNE) (Homo sapiens, UniProt P08246).
T1 construct: purchased Serva, Heidelberg
T1 sequence (P08246 30-267): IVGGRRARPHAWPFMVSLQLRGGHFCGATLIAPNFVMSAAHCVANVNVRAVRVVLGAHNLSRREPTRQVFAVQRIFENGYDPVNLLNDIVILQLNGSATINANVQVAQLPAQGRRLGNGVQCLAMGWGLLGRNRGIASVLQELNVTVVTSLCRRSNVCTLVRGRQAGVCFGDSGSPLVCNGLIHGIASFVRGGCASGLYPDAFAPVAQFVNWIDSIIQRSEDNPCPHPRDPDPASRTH
As to the kind of experiment: In vitro HNE inhibition assay. The format is biochemical. To be noted: 80 pM HNE, 20 μM MeOSuc-Ala-Ala-Pro-Val-AMC, 37° C., 2 hours, fluorescence. The protocol:
B-1. In vitro HNE Inhibition Assay
The potency of the compounds of the invention is ascertained in an in vitro inhibition assay. The HNE-mediated amidolytic cleavage of a suitable peptide substrate leads in this connection to an increase in the fluorescent light. The signal intensity of the fluorescent light is directly proportional to the enzyme activity.
Enzyme (80 pM HNE; from Serva, Heidelberg) and substrate (20 μM MeOSuc-Ala-Ala-Pro-Val-AMC; from Bachem, Weil am Rhein) are incubated in an assay volume of in total 50 μl of assay buffer (0.1 M HEPES pH 7.4, 0.5 M NaCl, 0.1% w/v BSA, 1% v/v DMSO) in a 384-well microtiter plate in the presence and absence of the test substance at 37° C. for 2 hours. […] The IC50 values are determined by plotting the intensity of the fluorescent light against the active substance concentration.
Compound `CC1=C(C(=O)C2CCC2)[C@@H](c2ccc(C#N)cc2)N(CC(=O)O)C(=O)N1c1cccc(C(F)(F)F)c1` [Example 8, [(6R)-6-(4-Cyanophenyl)-5-(cyclobutylcarbonyl)-4-methyl-2-oxo-3-[3-(trifluoromethyl)phenyl]-3,6-dihydropyrimidin-1(2H)-yl]acetic acid] had an IC50 of 4.3 nM. This lies in the single-digit nanomolar range.

In turn, `CC1=C(C(=O)OCCO)[C@@H](c2ccc(C#N)cc2)N(CC(N)=O)C(=O)N1c1cccc(C(F)(F)F)c1` [Example 29] showed an IC50 of 1.4 nM. This IC50 is about 3.1-fold lower than that of the compound before.

Take `CC1=C(C(=O)C(C)C)[C@@H](c2ccc(C#N)cc2)N(CC(=O)O)C(=O)N1c1cccc(C(F)(F)F)c1` [Example 16, [(6R)-6-(4-Cyanophenyl)-5-isobutyryl-4-methyl-2-oxo-3-[3-(trifluoromethyl)phenyl]-3,6-dihydropyrimidin-1(2H)-yl]acetic acid]: half-maximal inhibition (IC50) was put at 2.9 nM.

Compound `CC(=O)C1=C(C)N(c2ccc(F)c(C(F)(F)F)c2)C(=O)N[C@@H]1c1ccc(C#N)cc1` [Example 7, 4-{(4R)-5-Acetyl-1-[4-fluoro-3-(trifluoromethyl)phenyl]-6-methyl-2-oxo-1,2,3,4-tetrahydropyrimidin-4-yl}benzonitrile] yielded an IC50 of 5.2 nM.

The compound `CC(=O)C1=C(C)N(c2cccc(C(F)(F)F)c2)C(=O)N(Cc2ccc(C(=O)O)cc2)[C@@H]1c1ccc(C#N)cc1` [Example 18, 4-{[(6R)-5-Acetyl-6-(4-cyanophenyl)-4-methyl-2-oxo-3-[3-(trifluoromethyl)phenyl]-3,6-dihydropyrimidin-1(2H)-yl]methyl}benzoic acid] registered an IC50 of 2.9 nM.

For `CC(=O)C1=C(C)N(c2cccc(C(F)(F)F)c2)C(=O)N(CC(N)=O)[C@@H]1c1ccc(C#N)cc1` [Example 21, 2-[(6R)-5-Acetyl-6-(4-cyanophenyl)-4-methyl-2-oxo-3-[3-(trifluoromethyl)phenyl]-3,6-dihydropyrimidine-1(2H)-yl]acetamide], inhibition was half-maximal at 5.5 nM (IC50).

The compound `CC(=O)C1=C(C)N(c2cccc(C(F)(F)F)c2)C(=O)N(Cc2cccc(C(=O)O)c2)[C@@H]1c1ccc(C#N)cc1` [Example 17, 3-{[(6R)-5-Acetyl-6-(4-cyanophenyl)-4-methyl-2-oxo-3-[3-(trifluoromethyl)phenyl]-3,6-dihydropyrimidin-1(2H)-yl]methyl}benzoic acid] came in with an IC50 of 3.9 nM.

Turning to `CCOC(=O)C1=C(C)N(c2cccc(C(F)(F)F)c2)C(=O)N(CC(=O)N(C)C)[C@@H]1c1ccc(C#N)cc1` [Example 30, Ethyl(4R)-4-(4-cyanophenyl)-3-[2-(dimethylamino)-2-oxoethyl]-6-methyl-2-oxo-1-[3-(trifluoromethyl)phenyl]-1,2,3,4-tetrahydropyrimidine-5-carboxylate], half-maximal inhibition (IC50) required 0.4 nM.

Take `CC1=C(C(=O)C2CCC2)[C@@H](c2ccc(C#N)cc2)NC(=O)N1c1cccc(C(F)(F)F)c1` [Example 3, 4-{(4R)-5-(Cyclobutylcarbonyl)-6-methyl-2-oxo-1-[3-(trifluoromethyl)phenyl]-1,2,3,4-tetrahydropyrimidin-4-yl}benzonitrile]: it took 14.8 nM to reach half-maximal inhibition (IC50).

What is called IC50 is the point on the concentration scale where inhibition reaches its midpoint.
